Laboratory results: patent publication US20040116330A1, “Preventive/therapeutic method for cancer” (priority 2001, published 2004)

SMILES	melting point
Cc1ccc(/C=C/c2nc(COc3ccc(CCCCn4ccnc4CCO)cc3)co2)cc1 [Compound B10, 2-[1-[4-[4-[[2-[(E)-2-(4-methylphenyl)ethenyl]-1,3-oxazol-4-yl]methoxy]phenyl]butyl]-1H-imidazol-2-yl]-1-ethanol]	108 to 109 °C
OCCc1nccn1CCCc1ccc(OCc2coc(/C=C/c3ccc(F)cc3F)n2)cc1 [Compound B20, 2-[1-[3-[4-[[2-[(E)-2-(2,4-difluorophenyl)ethenyl]-1,3-oxazol-4-yl]methoxy]phenyl]propyl]-1H-imidazol-2-yl]-1-ethanol]	94 to 96 °C
CCc1ccc(/C=C/c2nc(COc3ccc(CCCCn4ccnc4CCO)cc3)co2)cc1 [Compound B13, 2-[1-[4-[4-[[2-[(E)-2-(4-ethylphenyl)ethenyl]-1,3-oxazol-4-yl]methoxy]phenyl]butyl]-1H-imidazol-2-yl]-1-ethanol]	94 to 95 °C
Cc1ccccc1/C=C/c1nc(COc2ccc(CCCCn3ccnc3CCO)cc2)co1 [Compound B12, 2-[1-[4-[4-[[2-[(E)-2-(2-methylphenyl)ethenyl]-1,3-oxazol-4-yl]methoxy]phenyl]butyl]-1H-imidazol-2-yl]-1-ethanol]	91 to 93 °C
Fc1ccc(/C=C/c2nc(COc3cccc(CCCn4ccnn4)c3)co2)cc1 [Compound B3, 1-{3-[3-({2-[(E)-2-(4-fluorophenyl)ethenyl]-1,3-oxazol-4-yl}methoxy)phenyl]propyl}-1H-1,2,3-triazole]	105 to 106 °C
OCC(O)Cc1nccn1CCCc1cccc(OCc2coc(/C=C/c3ccc(F)cc3F)n2)c1 (stereo not shown) [Compound B27, 3-(1-{3-[3-({2-[(E)-2-(2,4-difluorophenyl)ethenyl]-1,3-oxazol-4-yl}methoxy)phenyl]propyl}-1H-imidazol-2-yl)-1,2-propanediol]	92 to 94 °C
OCC(O)Cc1nccn1CCCc1cccc(OCc2coc(/C=C/c3ccc(C(F)(F)F)cc3)n2)c1 (stereo not shown) [Compound B25, 3-[1-(3-{3-[(2-{(E)-2-[4-(trifluoromethyl)phenyl]ethenyl}-1,3-oxazol-4-yl)methoxy]phenyl]propyl)-1H-imidazol-2-yl]-1,2-propanediol]	102 to 104 °C
Fc1ccc(/C=C/c2nc(COc3cccc(CCCn4ccnn4)c3)co2)c(F)c1 [Compound B8, 1-{3-[3-({2-[(E)-2-(2,4-difluorophenyl)ethenyl]-1,3-oxazol-4-yl}methoxy)phenyl]propyl}-1H-1,2,3-triazole]	89 to 90 °C
FC(F)(F)c1ccc(/C=C/c2nc(COc3cccc(CCCn4ccnn4)c3)co2)cc1 [Compound B6, 1-(3-{3-[(2-((E)-2-[4-(trifluoromethyl)phenyl]ethenyl}-1,3-oxazol-4-yl)methoxy]phenyl}propyl)-1H-1,2,3-triazole]	115 to 116 °C
OCCc1nccn1CCCCc1ccc(OCc2coc(/C=C/c3ccc(F)cc3F)n2)cc1 [Compound B19, 2-[1-[4-[4-[[2-[(E)-2-(2,4-difluorophenyl)ethenyl]-1,3-oxazol-4-yl]methoxy]phenyl]butyl]-1H-imidazol-2-yl]-1-ethanol]	93 to 95 °C
FC(F)(F)c1ccc(/C=C/c2nc(COc3ccc(CCCn4ccnn4)cc3)co2)cc1 [Compound B5, 1-(3-{4-[(2-((E)-2-[4-(trifluoromethyl)phenyl]ethenyl)-1,3-oxazol-4-yl)methoxy]phenyl)propyl)-1H-1,2,3-triazole]	157 to 158 °C
Fc1ccc(/C=C/c2nc(COc3ccc(CCCCn4ccnn4)cc3)co2)cc1 [Compound B2, 1-{4-[4-({2-[(E)-2-(4-fluorophenyl)ethenyl]-1,3-oxazol-4-yl}methoxy)phenyl]butyl}-1H-1,2,3-triazole]	124 to 125 °C
Fc1ccc(/C=C/c2nc(COc3ccc(CCCCn4ccnn4)cc3)co2)c(F)c1 [Compound B7, 1-{4-[4-({2-[(E)-2-(2,4-difluorophenyl)ethenyl]-1,3-oxazol-4-yl}methoxy)phenyl]butyl}-1H-1,2,3-triazole]	115 to 117 °C
Cc1cccc(/C=C/c2nc(COc3ccc(CCCCn4ccnc4CCO)cc3)co2)c1 [Compound B11, 2-[1-[4-[4-[[2-[(E)-2-(3-methylphenyl)ethenyl]-1,3-oxazol-4-yl]methoxy]phenyl]butyl]-1H-imidazol-2-yl]-1-ethanol]	109 to 111 °C

Next, values leading:

melting point	SMILES
127 to 128 °C	OCCc1nccn1CCCCc1ccc(OCc2coc(/C=C/c3ccc(Cl)cc3)n2)cc1 [Compound B15, 2-[1-[4-[4-[[2-[(E)-2-(4-chlorophenyl)ethenyl]-1,3-oxazol-4-yl]methoxy]phenyl]butyl]-1H-imidazol-2-yl]-1-ethanol]
102 to 104 °C	Cc1cccc(/C=C/c2nc(COc3ccc(CCCCn4ccnc4CC(O)CO)cc3)co2)c1 (stereo not shown) [Compound B22, 3-(1-{4-[4-({2-[(E)-2-(3-methylphenyl)ethenyl]-1,3-oxazol-4-yl}methoxy)phenyl]butyl}-1H-imidazol-2-yl)-1,2-propanediol]
123 to 125 °C	OCC(O)Cc1nccn1CCCCc1ccc(OCc2coc(/C=C/c3c(F)cccc3F)n2)cc1 (stereo not shown) [Compound B28, 3-[1-[4-[4-[[2-[(E)-2-(2,6-difluorophenyl)ethenyl]-1,3-oxazol-4-yl]methoxy]phenyl]butyl]-1H-imidazol-2-yl]-1,2-propanediol]
149 to 150 °C	OCCc1nccn1CCCCc1ccc(OCc2coc(/C=C/c3ccc(Br)cc3)n2)cc1 [Compound B16, 2-[1-[4-[4-[[2-[(E)-2-(4-bromophenyl)ethenyl]-1,3-oxazol-4-yl]methoxy]phenyl]butyl]-1H-imidazol-2-yl]-1-ethanol]
142 to 143 °C	OCC(O)Cc1nccn1CCCCc1ccc(OCc2coc(/C=C/c3ccc(C(F)(F)F)cc3)n2)cc1 (stereo not shown) [Compound B24, 3-[1-(4-(4-[(2-{(E)-2-[4-(trifluoromethyl)phenyl]ethenyl)-1,3-oxazol-4-yl)methoxy]phenyl}butyl)-1H-imidazol-2-yl]-1,2-propanediol]
130 to 132 °C	OCCc1nccn1CCCCc1ccc(OCc2coc(/C=C/c3ccc(F)cc3)n2)cc1 [Compound B14, 2-(1-{4-[4-({2-[(E)-2-(4-fluorophenyl)ethenyl]-1,3-oxazol-4-yl}methoxy)phenyl]butyl)-1H-imidazol-2-yl)-1-ethanol]
114 to 116 °C	OCC(O)Cc1nccn1CCCCc1ccc(OCc2coc(/C=C/c3ccc(F)cc3)n2)cc1 (stereo not shown) [Compound B23, 3-(1-{4-[4-({2-[(E)-2-(4-fluorophenyl)ethenyl]-1,3-oxazol-4-yl}methoxy)phenyl]butyl}-1H-imidazol-2-yl)-1,2-propanediol]
126 to 128 °C	OCC(O)Cc1nccn1CCCCc1ccc(OCc2coc(/C=C/c3ccc(F)cc3F)n2)cc1 (stereo not shown) [Compound B26, 3-(1-{4-[4-({2-[(E)-2-(2,4-difluorophenyl)ethenyl]-1,3-oxazol-4-yl)methoxy)phenyl]butyl}-1H-imidazol-2-yl)-1,2-propanediol]
